In patent publication US20050004029A1, “Methods and compositions for treating vascular leak using hepatocyte growth factor” (priority 2001, published 2005):

Legend:
[1] = tested on: p42/44 ERK; test: p42/44 ERK activation by phospho-specific immunoblotting; type: cell-based, human; details: HGF 20 ng/ml
Procedure: (§1) Endothelial cell monolayers grown to confluence in 12-well plates and challenged with HGF were lysed with 100 μl of 2×SDS sample buffer, and cell lysates were transferred into microcentrifuge tubes and boiled for 5 min. After a brief spin, proteins from 10 μl cell lysates were separated on 12% SDS-PAGE and transferred to nitrocellulose (Schleicher & Schuell, Keene, N.H.) (30V, 18 h). After blocking with PBST (PBS with 0.1% Tween 20) containing 5% non-fat milk for 1 hr, nitrocellulose blots were reacted with primary antibodies diluted in PBST containing 5% BSA for 1 hr, washed with PBST (3×10 min), incubated with peroxidase-conjugated secondary antibodies (goat anti-rabbit IgG, 1:10,000 dilution, Sigma; or goat anti-mouse IgG, 1:10,000 dilution, Bio-Rad Labs, Richmond, Calif.) diluted in PBST with 5% non-fat milk for 1 hr and again washed with PBST (3×10 min). Finally, immunoreactive proteins were detected using ECL. The relative intensities of the protein bands were quantified by scanning densitometry.
(§2) The MAP family of kinases (ERK1/2 and p38) are actively involved in agonist-induced endothelial cell actin reorganization and barrier regulation (Verin, A. D. et al. (2000) Am. J. Physiol: Lung Cell Molec. Phys. 279:L360-L370, 2000; Garcia, J. G. N. et al. (2001) J. Clin. Invest. 108:689-711) and have been noted to participate in HGF-mediated cell activation (Liang, C. C. and Chen, H. C. (2001) J. Biol. Chem. 276:21146-21152). These reports were confirmed in human endothelial cell monolayers incubated with HGF (20 ng/ml, for 1, 2, 5, 10, 15, 20, 30, 60, or 120 min) where activation of p42/44 ERK and p38 MAPK by HGF was detected by immunoblotting with antibodies that only recognize the phosphorylated (activated) forms of ERK or p38 MAPK. The activation of ERKs was evident at 5 min, maximal after 10-15 min with a gradual decline thereafter, but remaining sustained above basal levels for more than 2 hrs. […] The onset of HGF-mediated activation of p38 MAPK was similar to ERK, with plateau at 10-15 min. However, the duration of this response was much more truncated than ERK activation, beginning to decline by 20 min and returning to basal value by 1 hr.

[2] = tested on: p38 MAPK; test: p38 MAPK activation by phospho-specific immunoblotting; type: cell-based, human; details: HGF 20 ng/ml
Procedure: as §1
as §2, with “However, the duration of this response was much more truncated than ERK activation, beginning to decline by 20 min and returning to basal value by 1 hr.” left out

[3] = tested on: human endothelial monolayers; test: F-actin immunofluorescent microscopy (cortical actin ring); type: cell-based; details: HGF 20 ng/ml
Procedure: Endothelial cell monolayers grown on gelatinized cover slips were rinsed with M199 and incubated with agonists in the same medium in a 37° C. incubator (5% CO2). Monolayers were then rinsed with PBS (3×2 min), fixed in 4% paraformaldehyde for 10 min, again rinsed with PBS (3×2 min), and permeabilized with 0.25% Triton X-100 for 5 min. Cells were then washed briefly with PBS (3×2 min), blocked with PBS containing 2% BSA for 30 min and incubated with 1 Unit/mL of Texas Red-X phalloidin (Molecular Probes, Eugene, Oreg.), β-catenin antibody (Transduction Laboratories, Lexington, Ky.), glycogen synthase kinase-3 β (GSK-3β) (Santa Cruz Biotechnology, Inc., Santa Cruz, Calif.), or mono-phosphorylated MLC antisera (see Garcia, J. G. N. et al. (2001) J. Clin. Invest. 108:689-711) for 1 hr. After washing with PBS (3×2 min), cover slips were mounted on slides using SlowFade mounting medium (Molecular Probes). Cells were analyzed using a 60× oil objective on a Nikon Eclipse TE 300 microscope. Images were captured by Sony Digital Photo camera DKC 5000. […]
The effect of HGF on the spatial localization of polymerized actin in human endothelial monolayers was investigated by immunofluorescent microscopy. […] F-actin staining was assessed with Texas red phalloidin and myosin light chain staining evaluated with anti-monophosphorylated myosin light chain polyclonal antibody.

[4] = tested on: Human pulmonary artery endothelial cells; test: Transendothelial electrical resistance (TER) of human pulmonary artery endothelial cell monolayers; type: cell-based; details: HGF 100 ng/ml; baseline TER ~1600 Ω

## HGF: heparin-binding glycoprotein, multifunctional cytokine, ligand of c-Met; purchased from R&D Systems
[1]
  duration of ERK activation above basal levels: more than 2 hrs
  time at which ERK activation is evident: 5 min
  time of maximal ERK activation: 10 to 15 min
[2]
  time at which p38 MAPK activation begins to decline: ≤ 20 min
  time of plateau of p38 MAPK activation: 10 to 15 min
  time of return of p38 MAPK activation to basal value: ≤ 1 h
[3]
  F-actin staining: rapid enhancement of F-actin staining spatially confined to the cortical cytoskeletal ring
[4]
  peak TER: ~2400 Ω
